Test results taken from patent US20170368134A1, “PROTEASOME INHIBITORS FOR TREATING A DISORDER RELATED TO AN ACCUMULATION OF NON-DEGRADED ABNORMAL PROTEIN OR A CANCER” (UNIVERSITÉ D'AIX-MARSEILLE, priority 2015, published 2017).
Peptide text beside a SMILES is read from it. * marks the point of attachment. Cbz = O=C(OCc1ccccc1)*

Experiments:
[1] = test system: SRSF-1; assay: SRSF-1 levels in HGPS fibroblasts, iPS-MSC and iPS-VSMC; assay type: cell-based, human; details: data not shown
Protocol: Generation of induced pluripotent stem cells (iPS) by reprogramming was carried out using fibroblasts isolated from HGPS patient biopsies performed in the Assistance Publique Hopitaux de Marseille (13-8243) or provided by Coriell Institute (Camden, USA) (AG01972). Cell lines were reprogrammed to iPSC using Yamanaka's original method based on retrovirus-mediated transfection of four transcription factors, namely Oct3/4, Sox2, c-Myc, and Klf4 (41). The iPSC lines were amplified up to the 15th passage before differentiation.
HGPS iPSC were grown on STO mouse fibroblasts, inactivated with […] mitomycin C, seeded at 30,000/cm2 and grown as previously described (42). For differentiation, iPSC were differentiated into mesenchymal stem cells (MSC-iPSC) using directed protocols for differentiation previously published (43-45). VSMC were obtained from iPSC by fluorescent-activated cell sorting (FACS) separation of CD31+ cells (46).

[2] = Tolerability of intramuscular MG132 in Lmna G609G/G609G mice; assay type: in vivo, mouse; details: 1 or 10 μg/Kg intramuscular
Protocol: (§1) Knock-in mouse model (Lmna^G609G/G609G) carrying the c.1827C>T (p.Gly609Gly) mutation in the endogenous Lmna gene, corresponding to the human HGPS mutation c.1824C>T (p.Gly609Gly) have been described previously (31). MG132 (1 or 10 μg/Kg body weight) was injected under isoflurane anesthesia into the right gastrocnemius muscle of […] homozygous knock-in mice (Lmna^G609G/G609G) 3 times per week for 2 weeks. Contralateral muscle served as control (DMSO). MG132 was dissolved in dimethyl sulfoxide (DMSO) and then diluted in 100 μl sterile phosphate-buffered saline (PBS) for intramuscular injection. […] Animal experiments have been carried out in compliance with the European guidelines for the care and use of laboratory animals (EU directive 2010/63/EU) and in accordance with the recommendations provided by the guide for the care and use of the laboratory animals of the French national Institute for Health and Medical Research (INSERM) and the ethical committee of Aix-Marseille University.

[3] = test system: LC3B-II; assay: Western blot of LC3B-II (autophagy level) in HGPS fibroblasts; assay type: cell-based, human; details: HGPS fibroblasts following MG132 treatment
Protocol: (§2) Total fibroblast proteins were extracted in 200 μL of NP40 Cell Lysis buffer (Invitrogen, Carlsbad, Calif.) containing Protease and Phosphatase Inhibitor Cocktail (Thermo Scientific). Alternatively, cells were lysed with urea (8 M urea, 5 mM dithiothreitol, 150 mM NaCl, 50 mM Tris-Cl pH 7.5, protease and phosphatase Inhibitor Cocktail (Thermo Scientific)). Cells were sonicated twice (30 sec each), incubated at 4° C. for 30 minutes and then centrifuged at 10,000 g for 10 minutes. Protein concentration was evaluated with the bicinchoninic acid technique (Pierce BCA Protein Assay Kit), absorbance at 562 nm is measured using nanodrop 1000 (Thermo Fisher Scientific Inc.) Equal amounts of proteins (40 μg) were loaded onto 10% Tis-Glycine gel (Criterion™ XT precast gel) using XT Tricine running Buffer (Biorad, USA). After electrophoresis, gels were electro transferred onto nitrocellulose membranes or Immobilon-FL polyvinylidene fluoride membranes (Millipore), blocked in Odyssey Blocking Buffer diluted 1:1 in PBS for 1 hour at room temperature, and incubated overnight at 4° C. or 2 hours at room temperature with various primary antibodies. […]

[4] = test system: progerin; assay: Intramuscular MG132 in Lmna G609G/G609G mice, progerin in gastrocnemius muscle; assay type: in vivo, mouse
Protocol: (A) Lamin A, progerin, lamin C and SRSF-1 specific bands, corresponding to DMSO-treated left muscle (−) and 1 μg/Kg MG132-treated right muscle (+), were quantified by ImageJ software and their expression levels were normalized to GAPDH values.
as §1

[5] = test system: HGPS cell lines; assay: Quantitation of abnormal nuclear morphology; assay type: cell-based, human; details: 10 μM MG132, 48 h
Protocol: The percentage of normal nuclei (nuclei with a smooth oval shape) and abnormal nuclei (nuclei with blebs, irregular shape, or multiple folds) was calculated by manual blind counting. A representative image and the mean values of 3 different experiments are shown. *P<0.05.
Fibroblasts from three HGPS patients (AG01972, AG11498, 5968) and two normal individuals (8471, 8498) were cultured with DMEM medium containing 10 μM MG132, or the same volume of vehicle (DMSO, 0.025% v/v) for 48 h. Cells stained for lamin A/C or DAPI were examined by fluorescence microscopy with an Axioplan 2 imaging microscope (Carl Zeiss). For quantitation of abnormal nuclear morphology, the percentage of normal nuclei (nuclei with a smooth oval shape) and abnormal nuclei (nuclei with blebs, irregular shape, or multiple folds) was calculated by manual blind counting. At least 200 fibroblast nuclei were randomly selected for each cell line and examined in two independent experiments. Results are expressed graphically as the average percentage of the total nuclei counted.

[6] = test system: lamin A; assay: Western blot of lamin A protein in HGPS fibroblasts; assay type: cell-based, human; details: 48 h treatment with MG132 (10 μM)
Protocol: as §2

SMILES: CC(C)C[C@@H](C=O)NC(=O)[C@H](CC(C)C)NC(=O)[C@H](CC(C)C)NC(=O)OCc1ccccc1 [MG132, Z-Leu-Leu-Leu-al] (Cbz-Leu-Leu-Leu-aldehyde)
- SRSF-1 levels [1]: decreased
- apparent damage or stress responses [2]: Neither vehicle alone nor MG132 treatment produced any apparent damage or stress responses
- LC3B-II levels [3]: increased
- progerin level in treated muscle ([4]; 1 μg/Kg intramuscular, 3 times per week for 2 weeks, vs contralateral muscle): significant decrease of progerin level
- progerin level in treated muscle ([4]; 10 μg/kg body weight intramuscular): significant decrease of progerin levels
- nuclear shape abnormalities [5]: improves nuclear shape abnormalities
- lamin A protein levels [6]: increased
